Tests used:
MAO-A = biological target: T1, MAO-A (Homo sapiens, UniProt P21397); test: MAO-Glo luminescence enzyme activity assay; type: biochemical
T1 construct: gene MAOA
T1 sequence (P21397 1-527): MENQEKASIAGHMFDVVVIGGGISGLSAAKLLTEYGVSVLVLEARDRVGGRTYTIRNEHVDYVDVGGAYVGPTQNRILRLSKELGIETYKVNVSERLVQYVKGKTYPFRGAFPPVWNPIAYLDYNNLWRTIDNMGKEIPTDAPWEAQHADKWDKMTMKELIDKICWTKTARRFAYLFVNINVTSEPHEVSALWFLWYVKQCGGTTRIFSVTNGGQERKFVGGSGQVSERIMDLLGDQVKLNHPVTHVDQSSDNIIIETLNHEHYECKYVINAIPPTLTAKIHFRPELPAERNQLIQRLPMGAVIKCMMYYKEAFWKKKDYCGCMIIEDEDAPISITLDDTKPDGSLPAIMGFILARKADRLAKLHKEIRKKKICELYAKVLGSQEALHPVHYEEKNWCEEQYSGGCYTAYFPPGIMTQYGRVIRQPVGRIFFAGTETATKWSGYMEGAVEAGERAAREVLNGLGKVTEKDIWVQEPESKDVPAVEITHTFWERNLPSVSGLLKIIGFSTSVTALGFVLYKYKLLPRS

MAO-B = biological target: T2, MAO-B (Homo sapiens, UniProt P27338); test: MAO-Glo luminescence enzyme activity assay with purchased human MAO-B; type: biochemical
T2 construct: gene MAOB
T2 sequence (P27338 2-520): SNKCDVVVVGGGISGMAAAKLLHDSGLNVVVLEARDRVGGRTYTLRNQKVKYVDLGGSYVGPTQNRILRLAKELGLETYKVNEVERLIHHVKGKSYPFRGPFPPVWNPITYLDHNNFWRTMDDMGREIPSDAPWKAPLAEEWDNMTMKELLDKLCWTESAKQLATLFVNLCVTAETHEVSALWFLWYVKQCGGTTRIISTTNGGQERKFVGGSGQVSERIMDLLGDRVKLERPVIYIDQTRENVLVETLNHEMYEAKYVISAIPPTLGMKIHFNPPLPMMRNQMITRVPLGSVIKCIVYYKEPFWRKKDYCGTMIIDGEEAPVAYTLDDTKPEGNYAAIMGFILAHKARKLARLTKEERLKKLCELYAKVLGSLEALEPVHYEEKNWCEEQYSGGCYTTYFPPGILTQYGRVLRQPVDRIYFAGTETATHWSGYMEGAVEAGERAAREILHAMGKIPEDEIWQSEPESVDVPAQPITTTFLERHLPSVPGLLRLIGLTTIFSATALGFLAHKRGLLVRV

Structure (SMILES): Cn1c2ccccc2c2ccncc21 [9-methyl-β-carboline]
- IC50 (MAO-A): 1 µM
- IC50 (MAO-B): 15.5 µM
